Several values for one entry are separate records, joined by “and”; a condition that tells them apart may be missing. Equal values may be shown once. Values belong to the molecule of their own block, whether it stands above or below them.
What was measured:
[1] = molecular target: T1, serine racemase (Homo sapiens, UniProt Q9GZT4); experiment: affinity pull-down from Centella asiatica extract on immobilized SR, identified by LC-MS/MS and FTIR; type: binding; parameters: gene SRR; recombinant His-tagged human SR immobilized on Ni-NTA beads
T1 sequence (Q9GZT4 1-340): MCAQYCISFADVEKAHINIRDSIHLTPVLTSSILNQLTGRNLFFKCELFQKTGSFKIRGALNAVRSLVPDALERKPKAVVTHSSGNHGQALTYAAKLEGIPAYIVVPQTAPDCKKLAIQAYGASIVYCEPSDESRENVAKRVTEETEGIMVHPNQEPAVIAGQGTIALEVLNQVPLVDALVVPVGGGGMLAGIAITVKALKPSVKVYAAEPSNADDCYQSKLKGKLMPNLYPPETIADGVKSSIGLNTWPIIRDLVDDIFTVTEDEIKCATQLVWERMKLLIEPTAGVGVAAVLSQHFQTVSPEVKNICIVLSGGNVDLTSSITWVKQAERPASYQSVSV

[2] = molecular target: T1, serine racemase; experiment: SR activity assay, reference inhibitor (Supplementary Fig. S6); type: biochemical; parameters: gene SRR; recombinant His-tagged human SR (1020 bp gene, NM_021947.1), expressed in E. coli
[3] = molecular target: the molecule itself; experiment: SEC; Ni-NTA purified SR on Sephadex S-200, 1 ml/min, 20 mM Tris-HCl, 150 mM NaCl, 15 uM PLP pH 8.0

Molecule: C[C@H]1[C@H](C)CC[C@]2(C(=O)O)CC[C@]3(C)C(=CC[C@@H]4[C@@]5(C)C[C@@H](O)[C@H](O)[C@@](C)(CO)[C@@H]5[C@H](O)C[C@]43C)[C@H]12 [madecassic acid]
affinity pull-down from Centella asiatica extract on immobilized SR, identified [1]: Madecassoside and madecassic acid are the two compounds identified from the CA plant extract binding to SR.

IC50 [2]: 449 µM
Molecule: O=C(O)CC(=O)O [malonate]

B1: recombinant human serine racemase (enzyme, UniProt Q9GZT4 1-340, looked up)
chain: MCAQYCISFADVEKAHINIRDSIHLTPVLTSSILNQLTGRNLFFKCELFQKTGSFKIRGALNAVRSLVPDALERKPKAVVTHSSGNHGQALTYAAKLEGIPAYIVVPQTAPDCKKLAIQAYGASIVYCEPSDESRENVAKRVTEETEGIMVHPNQEPAVIAGQGTIALEVLNQVPLVDALVVPVGGGGMLAGIAITVKALKPSVKVYAAEPSNADDCYQSKLKGKLMPNLYPPETIADGVKSSIGLNTWPIIRDLVDDIFTVTEDEIKCATQLVWERMKLLIEPTAGVGVAAVLSQHFQTVSPEVKNICIVLSGGNVDLTSSITWVKQAERPASYQSVSV
notes: serine racemase, human; printed size 37 kDa; no cleavage is described and the purified protein was later held on Ni-NTA beads; PLP was present in the purification buffers; also called SR; recombinant SR
stoichiometry N [3]: 2 and 4

From publication PMC7070078, “Accelerated identification of serine racemase inhibitor from Centella asiatica” (Scientific Reports, 2020)
